Data taken from PMC11089204 (Frontiers in Pharmacology, 2024).

What was measured:
recombinant CYP2B6 = molecular target: T1, recombinant CYP2B6 (Homo sapiens, UniProt P20813); assay: Incubation with recombinant CYP2B6 enzymes; type: in vitro ADME; conditions: 1,000 nM psilocin, rec. CYP2B6
T1 construct: purchased Corning Life Sciences B.V
Procedure: (§1) Corning UltraPool human liver microsomes (HLM) 150 (20 mg/mL), human intestinal microsomes (HIM) pool (10 mg/mL) as well as recombinant human CYP enzymes (with P450 oxidoreductase, OR) including CYP1A2+OR (0.5 nmol), CYP2B6+OR (0.5 nmol), CYP2C8+OR (1.0 nmol), CYP2C9*1+OR (1 nmol), CYP2C19+OR (0.5 nmol), CYP2D6*1+OR (0.5 nmol), CYP2E1+OR + cytochrome b5 (1 nmol), CYP3A4+OR + cytochrome b5 (0.5 nmol), MAO-A (5 mg/mL), MAO-B (5 mg/mL), and UGT1A10 (5 mg/mL) were purchased from Corning Life Sciences B.V (Amsterdam, Netherlands). All microsomes and recombinant enzyme solutions were aliquoted and stored at −80 °C until further use.
(§2) The total volume of the reaction mixture was 500 μL. […] Samples were either directly analyzed by liquid chromatography tandem mass spectrometry (LC-MS/MS) or briefly stored at −20°C until analysis.

[1] = tested on: serotonin transporter (SERT); set-up: method as in Rickli et al., 2016; conditions: ref Rickli et al., 2016; cited from earlier work
[2] = tested on: human intestinal microsomes (HIM); assay: Glucuronidation with human intestinal microsomes; type: in vitro ADME; conditions: for psilocin concentration: absence of HIM
Procedure: as §1, with “use. Co-factors including NADPH regenerating system solution A (25 mM NADP+, 66 mM glucose-6-phosphate, and 66 mM MgCl2 in water), NADPH regenerating system solution B (40 U/mL glucose-6-phosphate dehydrogenase in 5 mM sodium citrate), UGT reaction mix solution A (25 mM uridine 5′-diphospho-glucuronic acid in water), and UGT reaction mix solution B (250 mM Tris-HCl, 40 mM MgCl2, and 0.125 mg/mL alamethicin in water) were also obtained from Corning Life Sciences B.V.” for “use.”
The assay described in section 2.5.1 was adjusted to suit the glucuronidation system. […] HLM were diluted as described in section 2.5.1, while HIM or UGT1A10 enzymes were diluted 1:40 (end concentration […] and 0.125 mg/mL, respectively) in the reaction mix. Sampling time points were adjusted to 0, 15, 30, 60, 90, 120, 180, and 240 min.

recombinant CYP2C9 = molecular target: T2, recombinant CYP2C9 (Homo sapiens, UniProt P11712); assay: Incubation with recombinant CYP2C9 enzymes; type: in vitro ADME; conditions: 1,000 nM psilocin, rec. CYP2C9
T2 construct: purchased Corning Life Sciences B.V
T2 sequence (P11712 whole entry): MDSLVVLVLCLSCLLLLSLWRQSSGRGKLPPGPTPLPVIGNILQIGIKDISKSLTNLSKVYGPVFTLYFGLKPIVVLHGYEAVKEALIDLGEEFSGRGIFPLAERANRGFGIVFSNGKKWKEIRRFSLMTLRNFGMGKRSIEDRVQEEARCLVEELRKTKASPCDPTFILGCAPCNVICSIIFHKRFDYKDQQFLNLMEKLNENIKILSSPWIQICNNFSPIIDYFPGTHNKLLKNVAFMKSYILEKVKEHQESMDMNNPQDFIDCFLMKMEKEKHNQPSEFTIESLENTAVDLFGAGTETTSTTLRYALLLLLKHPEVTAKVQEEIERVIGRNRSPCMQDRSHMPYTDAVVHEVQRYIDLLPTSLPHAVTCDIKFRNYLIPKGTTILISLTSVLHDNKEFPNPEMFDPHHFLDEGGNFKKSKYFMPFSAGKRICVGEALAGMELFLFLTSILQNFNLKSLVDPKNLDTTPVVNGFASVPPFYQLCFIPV
Procedure: as §1, §2

recombinant CYP2C19 = molecular target: T3, recombinant CYP2C19 (Homo sapiens, UniProt P33261); assay: Incubation with recombinant CYP2C19 enzymes; type: in vitro ADME; conditions: 1,000 nM psilocin, rec. CYP2C19
T3 construct: purchased Corning Life Sciences B.V
T3 sequence (P33261 whole entry): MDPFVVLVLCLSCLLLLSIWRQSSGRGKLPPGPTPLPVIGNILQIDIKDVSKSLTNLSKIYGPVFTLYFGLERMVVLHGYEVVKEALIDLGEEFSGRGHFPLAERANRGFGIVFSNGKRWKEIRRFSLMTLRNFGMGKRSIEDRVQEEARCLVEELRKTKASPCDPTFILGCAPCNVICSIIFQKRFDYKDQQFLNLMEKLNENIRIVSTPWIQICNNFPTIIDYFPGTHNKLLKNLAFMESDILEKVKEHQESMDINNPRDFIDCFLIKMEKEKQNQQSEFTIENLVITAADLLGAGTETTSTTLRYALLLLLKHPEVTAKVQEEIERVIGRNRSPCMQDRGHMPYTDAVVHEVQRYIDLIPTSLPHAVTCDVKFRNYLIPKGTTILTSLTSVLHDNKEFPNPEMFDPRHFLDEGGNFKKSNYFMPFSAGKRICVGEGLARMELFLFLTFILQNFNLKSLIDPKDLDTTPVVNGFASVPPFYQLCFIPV
Procedure: as §1, §2

[3] = tested on: dopamine (DAT) transporter; set-up: method as in Rickli et al., 2016; conditions: ref Rickli et al., 2016; cited from earlier work
recombinant CYP2E1 = molecular target: T4, recombinant CYP2E1 (Homo sapiens, UniProt P05181); assay: Incubation with recombinant CYP2E1 enzymes; type: in vitro ADME; conditions: 1,000 nM psilocin, rec. CYP2E1
T4 construct: purchased Corning Life Sciences B.V
T4 sequence (P05181 whole entry): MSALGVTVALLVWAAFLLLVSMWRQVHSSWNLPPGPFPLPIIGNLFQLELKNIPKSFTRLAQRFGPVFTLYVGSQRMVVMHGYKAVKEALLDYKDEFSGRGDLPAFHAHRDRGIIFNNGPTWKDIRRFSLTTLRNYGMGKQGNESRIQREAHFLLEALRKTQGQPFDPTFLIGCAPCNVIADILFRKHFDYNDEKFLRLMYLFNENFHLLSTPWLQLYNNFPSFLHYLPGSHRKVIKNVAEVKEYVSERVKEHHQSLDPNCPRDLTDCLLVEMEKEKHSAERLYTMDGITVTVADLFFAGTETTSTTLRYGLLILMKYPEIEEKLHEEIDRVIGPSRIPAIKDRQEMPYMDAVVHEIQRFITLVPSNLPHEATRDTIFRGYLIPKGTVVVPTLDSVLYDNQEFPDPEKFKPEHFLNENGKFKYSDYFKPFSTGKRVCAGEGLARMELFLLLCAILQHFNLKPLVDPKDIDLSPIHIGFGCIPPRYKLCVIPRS
Procedure: as §1, §2

[4] = tested on: norepinephrine transporters (NET); set-up: method as in Rickli et al., 2016; conditions: ref Rickli et al., 2016; cited from earlier work
CYP2D6 = assay: Influence of CYP2D6 genotype on psilocin plasma exposure in humans; type: in vivo; conditions: human, PM/IM/EM/UM genotypes, AUC z-scores
Procedure: Genomic DNA was extracted from whole blood using the QIAamp DNA Blood Mini Kit (Qiagen, Hombrechtikon, Switzerland) and an automated QIAcube system. SNP genotyping was performed using commercial TaqMan SNP genotyping assays (LuBio Science, Lucerne, Switzerland). We assayed the following SNPs and respective alleles: CYP2D6*3 (rs35742686, assay: C_32407232_50), CYP2D6*4 (rs3892097, assay: C_27102431_D0, and rs1065852, assay: C_11484460_40), CYP2D6*6 (rs5030655, assay: C_32407243_20), CYP2D6*9 (rs5030656, assay: C_32407229_60), CYP2D6*10 (rs1065852), CYP2D6*17 (rs28371706, assay: C_2222771_A0, and rs16947, assay: C_27102425_10), CYP2D6*29 (rs59421388, assay: C_3486113_20), and CYP2D6*41 (rs28371725, assay: C_34816116_20, and rs16947). CYP2D6 gene deletion (allele *5) and duplication/multiplication (allele *xN) were determined using a TaqMan Copy Number Assay (Hs04502391_cn). Activity scores for CYP2D6 were assigned according to established guidelines ([Gaedigk et al., 2008]; [Crews et al., 2012]; [Hicks et al., 2013]; [Hicks et al., 2015]; [Caudle et al., 2020]). The classification into different genotypes was as follows: poor metabolizer (PM, activity score = 0), intermediate metabolizer (IM, activity score = 0.5–1), extensive metabolizer (EM, activity score = 1.5–2), and ultra-rapid metabolizer (UM, activity score > 2).

T1 sequence (P20813 whole entry): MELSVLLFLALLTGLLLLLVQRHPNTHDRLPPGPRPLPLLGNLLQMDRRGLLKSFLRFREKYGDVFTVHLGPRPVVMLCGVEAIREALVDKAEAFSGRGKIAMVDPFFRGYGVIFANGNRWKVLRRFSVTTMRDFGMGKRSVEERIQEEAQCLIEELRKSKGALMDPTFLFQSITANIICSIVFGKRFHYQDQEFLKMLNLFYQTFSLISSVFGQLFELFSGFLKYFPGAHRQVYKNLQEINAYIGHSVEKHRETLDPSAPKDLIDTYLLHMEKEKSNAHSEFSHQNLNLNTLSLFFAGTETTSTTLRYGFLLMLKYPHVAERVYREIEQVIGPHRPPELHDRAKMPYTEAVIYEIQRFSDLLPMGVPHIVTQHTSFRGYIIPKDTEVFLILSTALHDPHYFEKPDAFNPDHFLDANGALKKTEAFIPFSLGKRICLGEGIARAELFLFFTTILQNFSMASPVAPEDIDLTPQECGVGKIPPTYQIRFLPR

## CN(C)CCc1c[nH]c2cccc(O)c12 [psilocin, 4-hydroxy-N,N-dimethyltryptamine]
Recombinant CYP2B6
  metabolism of psilocin: did not metabolize
[1]
  inhibition of SERT: moderately inhibits
[2]; 1,000 nM psilocin, HIM, 240 min
  decrease of psilocin concentration through glucuronidation: 37%
[2]; HIM, t = 0
  psilocin concentration (mean ± SD): 1,085 ± 157 nM
[2]; HIM, t = 240
  psilocin concentration (mean ± SD): 684 ± 53 nM
[2]; t = 0
  psilocin concentration: 980 ± 77 nM
[2]; t = 240
  psilocin concentration: 893 ± 91 nM
Recombinant CYP2C9
  metabolism of psilocin: did not metabolize
Recombinant CYP2C19
  metabolism of psilocin: did not metabolize
[3]
  inhibition of DAT: not
Recombinant CYP2E1
  metabolism of psilocin: did not metabolize
[4]
  inhibition of NET: not
CYP2D6
  effect of CYP2D6 genotype on plasma concentration of free psilocin: did not alter
